Some results are limits rather than exact numbers.

Series [1] is described as follows: EPOCH test of oral fluid samples from cannabis users. The series is classed as in vivo, human. The source says: Informed consent was obtained from all subjects (cannabis smoker […]). Cannabis users were asked to take saliva samples right after cannabis smoking. Specifically, they were instructed to take a disposable swab (diameter, 1 cm; length, 1.5 cm) into the mouth and roll it for about one minute. The swab was then placed into the sample processing kit. Control samples were collected in the same manner from volunteers who self-declared no history of cannabis use. For the time-course monitoring, three cannabis smokers collected saliva samples hourly after their last smoking. Cylindrical saliva swabs were purchased (SalivaBio Oral Swab, Salimetrics, USA). These swabs were cut in the middle of their height to fit into the sample processing kit. Each halved swab collected about 0.5 mL of saliva.
Next, EPOCH was used for onsite THC detection. Oral fluid samples from recreational cannabis users (40 cannabis smokers and three THC jelly users) were collected within 10 minutes of product consumption and then tested. As a control, oral fluid samples were also assessed from non-cannabis users (13 traditional tobacco smokers and 30 non-smokers) without a history of cannabis use. […] We observed no significant difference between male and female subjects in any of the cohorts (P>0.05, two-sided Mann-Whitney test; FIG. 5C).
We also monitored how THC levels changed over time after cannabis smoking. In this case, oral fluid samples were collected hourly after the inhalation and subjected to the EPOCH tests.

The subject of series [2] is AuNPAb (THC antibody-coated gold nanoparticles). Nature of the series: isothermal titration calorimetry of binding to AuNPAb.

For the molecule `CCCCCc1cc(O)c2c(c1)OC(C)(C)[C@@H]1CCC(C)=C[C@@H]21` [THC, Δ^9-tetrahydrocannabinol], in series [1] (43 cannabis users shortly after consumption, versus regulatory guideline), the “oral THC concentration in all cannabis-user samples” value is above 1 ng/mL. Also, the “half-life of THC in saliva” value in series [1] (after cannabis smoking, hourly samples, three users, single-phase exponential decay) turned out to be 1.4 h. Further, the “oral THC concentration (average/median)” value in series [1] (cannabis smokers, oral fluid collected within 10 minutes of consumption) turned out to be 478 ng/mL. In addition, the half-life in series [1] (human, saliva, inhaled, after cannabis smoking, hourly samples, three users, single-phase exponential decay, read-out: half-life of THC in saliva (converted)) is 1.4 h. In addition, the concentration at 6 h in series [1] (human, saliva, po, six hours after cannabis smoking, read-out: oral THC level) was above 1 ng/mL. For the same molecule, the “association constant Ka with AuNPAb” value in series [2] was found to be 0.074 nM⁻¹.
